From patent US7494784B2, “Method of treating cell-migration conditions or diseases” (Wisconsin Alumni Research Foundation, priority 2003, dated 2009) come the findings set out here.

One assay concerns Src family kinases. As to the kind of experiment: Tyrosine phosphorylation of PIPKIγ661 in cells with Src-specific inhibitor. Format: cell-based. From the text:
In the FAK signaling pathway, Src family tyrosine kinases bind to and are activated by FAK, playing a fundamental role in focal adhesion organization (Parsons, et al. (2000) Oncogene 19:5606-5613; Cobb, et al (1994) Mol. Cell. Biol. 14:147-155; Schaller, et al. (1994) Mol. Cell. Biol. 14:1680-1688; Schaller, et al. (999) Mol. Cell. Biol. 10:3489-3505). To determine if Src family kinases phosphorylate PIPKIγ661, Src-specific inhibitor PP2 was employed. […] PIPKIγTyr^649->Phe is efficiently phosphorylated by c-Src.
HEK 293T cells and NRK cells were cultured in Dulbecco's modified Eagle's medium (DMEM) (Mediatech, Inc., Herndon, Va.) supplemented with 10% fetal bovine serum (INVITROGEN™, Carlsbad, Calif.) and antibiotics. NRK cells were transfected using FUGENE™ 6 (Roche, Indianapolis, Ind.) according to manufacturer's instructions for 24 hours. […]
Immunoprecipitation was performed using standard methods (Zhang, et al. (1997) J. Biol. Chem. 272:17756-17761). […] The immunocomplexes were washed with Buffer A, separated by SDS-polyacrylamide gel electrophoresis (SDS-PAGE), and analyzed as indicated. […]

Another assay deals with GST-talin Lys^357->Gln (Homo sapiens, UniProt Q9Y490, K357Q). The settings on record: peptide competing His-PIPKIγ661 binding. From the text:
(§1) From structural studies of integrin binding to talin, a conserved tryptophan in β-integrin tail is positioned near two basic residues, Lys^357 and Arg^358 of talin F3 lobe (Garcia-Alvarez, et al. (2003) supra). […] The role of PIPKIγ661 phosphorylation was examined by using phosphorylated peptides to compete His-PIPKIγ661 binding to wild-type or mutant GST-talin. […] To further analyze this, β1-integrin peptides phosphorylated at Thr of Trp-Asp-Thr and at Tyr of Asn-Pro-Ile-Tyr (SEQ ID NO: 1) were synthesized and used to compete integrin tail binding from talin.
(§2) Human talin1 head region (1-435) was cloned from HEK293T cells by PCR and subcloned into pET42. The C-terminal truncated or site-directed mutagenesis for the PIPKIγ661 mutants or talin head was performed using PCR-primer overlap extension with mutagenic primers. PIPKIγ661 mutants were then subcloned into pcDNA3.1 and talin head mutants were subcloned into pET42. His-tagged mouse β1-integrin tail was made using well-established methods (Pfaff, et al. (1998) supra) and subcloned into pET28. The C-terminus of PIPKIγ635 (439-635), PIPKIγ661 (439-661), or the Tyr to Phe mutants of PIPKIγ661 were PCR amplified from the corresponding pcDNA3.1 constructs and subcloned into pET28. […] FAK, FAKTyr397Phe, kinase dead FAK and c-Src constructs were generated using well-known methods.
(§3) Purified GST-talin head proteins were incubated with PIPKIγ661 tails or β1-integrin tail, together with Glutathione SEPHAROSE™ 4 Fast Flow (Amersham Biosciences, Piscataway, N.J.), in Buffer B (PBS, 0.2% NP-40, 2 mM DTT) at 4° C. for 4 hours. The beads were washed three times with Buffer B and analyzed by western blot. For competition assays, GST-talin head proteins were incubated with peptides or competing proteins for 2 hours, then the binding proteins were added and the mixtures were incubated for another 4 hours.

The target of another assay is GST-talin Arg^358->Gln (Homo sapiens, UniProt Q9Y490, R358Q). As to conditions: peptide competing His-PIPKIγ661 binding.
Chain of GST-talin Arg^358->Gln (Q9Y490 1-435 R358Q): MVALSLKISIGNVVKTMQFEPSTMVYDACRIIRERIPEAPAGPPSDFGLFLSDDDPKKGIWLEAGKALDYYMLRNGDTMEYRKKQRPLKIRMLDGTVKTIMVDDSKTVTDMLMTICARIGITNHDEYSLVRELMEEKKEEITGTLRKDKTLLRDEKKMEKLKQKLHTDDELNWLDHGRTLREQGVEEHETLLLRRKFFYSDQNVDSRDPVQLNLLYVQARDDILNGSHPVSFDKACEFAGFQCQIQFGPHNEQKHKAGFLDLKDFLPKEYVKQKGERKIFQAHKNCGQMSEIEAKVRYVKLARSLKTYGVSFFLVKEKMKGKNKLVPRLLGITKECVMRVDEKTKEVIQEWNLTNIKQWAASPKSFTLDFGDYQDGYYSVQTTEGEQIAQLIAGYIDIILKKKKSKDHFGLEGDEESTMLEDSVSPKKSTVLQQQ
Source text: as §1, §2, §3

A further assay deals with T1, GST-talin head (Homo sapiens, UniProt Q9Y490).
T1 construct: Human talin1 head region (1-435) was cloned from HEK293T cells by PCR and subcloned into pET42; made in house; host or cells: E. coli BL21(DE3)
T1 sequence (Q9Y490 1-435): as the sequence (Q9Y490 1-435 R358Q) above, with Q358R counted along it
As to the kind of experiment: GST pull-down competition: displacement of His-β1-integrin tail from GST-talin head. In kind it is binding. As to conditions: for binding affinity for talin compared with unphosphorylated peptide PN: binding assay between talin and integrin (FIG. 2); for binding affinity to talin of phosphorylated β1-integrin peptides: competing integrin tail binding from talin. The procedure:
Talin interactions were assessed by GST pull-down using recombinant GST-talin head, His-PIPKIγ635 C-terminus, His-PIPKIγ661 wild-type or Tyr to Phe mutant C-terminus, and His-β1-integrin tail. […] Peptides containing the PIPKIγ661/talin binding sequence (Di Paolo, et al. (2002) supra) were designed to include phosphorylated Tyr^644, phosphorylated Tyr^649, and dual phosphorylated Tyr^644 and Tyr^649.
In a screening assay to identify an agent which modulates the activity of PIPKIγ661 as defined by the binding interaction between PIPKIγ661 and talin, the step of detecting the activity of PIPKIγ661 is carried out by detecting and measuring the binding of PIPKIγ661 to talin. The detection and measurement of this binding interaction will be dependent on the type of screening assay performed and the labels used. Such screening assays to detect binding between two proteins in the presence of a test agent are well-known in the art. […] An exemplary binding assay of this type was conducted using PIPKIγ661 peptides of the sequence Cys-Asp-Glu-Arg-Scr-[…](peptide designated PN; SEQ ID NO:12) which are encompassed within the C-terminal 25 amino acid residues of PIPKIγ661 and interact with talin at the same site as integrin. […] Fluorescent probes may be linked to the cysteine residue using conventional thiol or thiolester linkages. […] In this assay, an agent which is an inhibitor of the interaction between PIPKIγ661 and talin blocks binding of a peptide of SEQ ID NO:12 and changes the fluorescent emission anisotropy as compared to a control (e.g., binding in the absence of the inhibitor).
as §3

A further assay relates to HEK293T cells. As to the kind of experiment: Co-immunoprecipitation of talin with PIPKIγ661 from suspended HEK293T cells after stimulation. Format: cell-based. As to conditions: stimulated. The procedure: The association between PIPKIγ661 and talin was also regulated by adhesion to type I collagen. […] However, in suspended cells, the PIPKIγ661 association with talin was restored when cells were stimulated with lysophosphatidic acid (LPA) or platelet-derived growth factor (PDGF).
Immunoprecipitation was performed using standard methods (Zhang, et al. (1997) J. Biol. Chem. 272:17756-17761). Briefly, transfected HEK293T cells were harvested and lysed in Buffer A (50 mM Tris-HCl, pH 7.5, 150 mM NaCl, 0.1-1.0% NP-40, 5.0 mM NaF, 2 mM Na3VO4, 4 mM Na2P2O7, 1 mM EDTA, 0.1 mM EGTA, 1 mM phenylmethyl sulphonyl fluoride (PMSF), 10% glycerol), centrifuged and incubated with protein A—Sepharose and 5 μg anti-HA, anti-c-Myc, anti-Flag, anti-PIPKIγ or anti-talin antibody as indicated at 4° C. for 4 hours to overnight. The immunocomplexes were washed with Buffer A, separated by SDS-polyacrylamide gel electrophoresis (SDS-PAGE), and analyzed as indicated. For the kinase assay, the immunocomplexes were washed and stored in kinase buffer.
Transfected HEK 293T cells were washed with phosphate-buffer saline (PBS) and detached with 0.25% trypsin at 37° C. The cells were harvested and washed with PBS, and suspended in serum-free DMEM at 37° C. for 1 hour. […]

Chain of GST-talin Lys^357->Gln (Q9Y490 1-435 K357Q): as the sequence (Q9Y490 1-435 R358Q) above, with K357Q, Q358R counted along it

In the case of `CC(C)(C)n1nc(-c2ccc(Cl)cc2)c2c(N)ncnc21` [PP2], the “FAK-induced tyrosine phosphorylation of PIPKIγ661” value with Src family kinases (FAK-induced) was “dramatically inhibited”. Moreover, in the assay on Src family kinases (basal), the “basal tyrosine phosphorylation of PIPKIγ661” value is “dramatically inhibited”.

Consider “Cys-As-Glu-Arg-Ser-Trp-Val-*Tyr-Ser-Pro-Leu-His-Tyr-Ser-Ala-Arg [pY644]”, for which the “affinity of binding to talin mutant Lys^357->Gln” value on GST-talin Lys^357->Gln was “retained high affinity binding”. In addition, at GST-talin Arg^358->Gln, the “affinity of binding to talin mutant Arg^358->Gln” value is on record as “loss of affinity”. For the same molecule, at GST-talin head, the “binding affinity for talin compared with unphosphorylated peptide PN” value is given as “higher binding affinity”.

For the molecule “Cys-Asp-Glu-Arg-Ser-Trp-Val-*Tyr-Ser-Pro-Leu-His-*Tyr-Ser-Ala-Arg [pY644/649]”, the “binding affinity for talin compared with unphosphorylated peptide PN” value at GST-talin head is “higher binding affinity”.

Turning to “Cys-Asp-Glu-Arg-Ser-Trp-Val-Tyr-Ser-Pro-Leu-His-*Tyr-Ser-Ala-Arg [pY649]”, the “affinity of binding to talin mutant Lys^357->Gln” value at GST-talin Lys^357->Gln is on record as “lower affinity”. Further, the “affinity of binding to talin mutant Arg^358->Gln” value on GST-talin Arg^358->Gln is recorded as “loss of affinity”. In addition, at GST-talin head, the “binding affinity for talin compared with unphosphorylated peptide PN” value is on record as “higher binding affinity”.

With “Cys-Asp-Glu-Arg-Ser-Trp-Val-Tyr-Ser-Pro-leu-His-Tyr-Ser-Ala-Arg [PN]”, on GST-talin head (in vitro), the “displacement of His-β1-integrin from GST-talin” value is “poorly displaced”.

Take “Cys-Met-Asn-Ala-Lys-Tp-Asp-Thr-Gly-Glu-Asn-Pro-Ile-*Tyr-Lys-Ser-Ala [β1 InpY]”: the “binding affinity to talin of phosphorylated β1-integrin peptides” value at GST-talin head is given as “lower binding affinity”.

“Cys-Met-Asn-Ala-Lys-Trp-Asp-*T-Gly-Glu-Asn-Pro-Ile-Tyr-Lys-Ser-Ala [β1InpT]”: on GST-talin head, the “binding affinity to talin of phosphorylated β1-integrin peptides” value was “did not increase binding affinity”.

Regarding PDGF, the “PIPKIγ661 association with talin” value with HEK293T cells was “restored”.

“lysophosphatidic acid [LPA, reference compound]”: the “PIPKIγ661 association with talin” value with HEK293T cells is on record as “restored”.

B1: His-PIPKIγ661: recombinant His-tagged PIPKIγ661 wild-type C-terminus (439-661) (protein)
chain: MSSTVFRKSSSLKSSPSKKGRGALLAVKPLGPTAAFSASQIPSEREDVQYDLRGARSYPTLEDEGRPDLLPCTPPSFEEATTASIATTLSSTSLSIPERSPSDTSEQPRYRRRTQSSGQDGRPQEEPHAEDLQKITVQVEPVCGVGVVPKEEGAGVEVPPCGASAAASVEIDAASQASEPASQASDEEDAPSTDIYFPTDERSWVYSPLHYSARPASDGESDT
modifications: left off: small tags and cut ends
For the molecule B1, in the assay with GST-talin head (recombinant C-terminus proteins), the “competition with His-β1-integrin for binding to GST-talin” value is listed as “competed with His-β1-integrin for binding to GST-talin in a dose-dependent manner”.
